Source: EPA's ToxValDB 9.5
Values joined by “and” are separate entries in the source; they are usually repeats but may differ in a detail not shown here. Equal entries are not always repeated.

What was measured:
[1] = tested on: Oryctolagus sp.; conditions: duration: 12 days, inhalation, New Zealand
[2] = tested on: Monkey; conditions: oral, Cynomolgus
[3] = tested on: Oryctolagus sp.; conditions: duration: 15 days, oral, F, New Zealand
[4] = reproduction developmental, F, generation: P0, P0: Developmental: Uterus: Implantation + P0: Developmental: Uterus: Pre-Implantation Loss + P0: Developmental: Uterus: Resorptions, Mean/…
[5] = reproduction developmental, F, generation: P0, P0: Developmental: Uterus: Resorptions, Mean/Litter + P0: General Toxicity: Whole Body: Body Weight Change + P0: General Toxicity: Whole …
[6] = reproduction developmental, F, generation: P0, P0: Whole Body: Clinical Observations
[7] = chronic, duration: 26 weeks, M/F, Endocrine: Increased TSH and decreased total T3 + Hepatic: 47-55% increased absolute liver weight / 50-60% decreased serum cholesterol / …
[8] = reproduction developmental, Body Weight: 21% decreased mean maternal body weight gain on GDs 7-21 / no effect on food consumption

With `FC(Cl)C(F)(F)F` (stereo unspecified) [2-Chloro-1,1,1,2-tetrafluoroethane] the NOAEL ([1]; developmental, M/F, generation: F1, F1: Developmental: Uterus: Dead Fetuses + F1: Developmental: Uterus: Fetuses, Live + F1: Developmental: Whole Body: Body Weight, Fetal + F1…) was 279000 mg/m3, the NOAEL ([1]; developmental, M/F, generation: F1, F1: Developmental: Whole Body: External Abnormalities + F1: Developmental: Whole Body: Live Pups Born + F1: Developmental: Whole Body: Pup …) was 27900 mg/m3 and 83700 mg/m3 and the NEL ([1]; developmental, M/F, generation: F1, F1: Uterus: Fetuses, Dead + F1: Uterus: Fetuses, Live + F1: Whole Body: Body Weight, Fetal + F1: Whole Body: External Abnormalities) was 279000 mg/m3. It also gave an NEL ([1]; developmental, M/F, generation: F1, F1: Whole Body: External Abnormalities + F1: Whole Body: Live Pups Born + F1: Whole Body: Pup Weight Relative to Litter + F1: Whole Body: …) of 279000 mg/m3, an NOAEL ([1]; reproduction developmental, F, generation: P0, P0: Developmental: Uterus: Implantation + P0: Developmental: Uterus: Number of Viable Fetuses + P0: Developmental: Uterus: Pre-Implantation …) of 279000 mg/m3 and an LOAEL [1, 4] of 83700 mg/m3. For the same molecule, the NOAEL [1, 4] was 27900 mg/m3, the NOAEL ([1]; reproduction developmental, F, generation: P0, P0: Developmental: Uterus: Implantation + P0: Developmental: Uterus: Pre-Implantation Loss + P0: Reproductive: Ovary: Corpora Lutea) was 279000 mg/m3 and the LOAEL [1, 5] was 279000 mg/m3. For the same molecule, the NOAEL [1, 5] was 83700 mg/m3, the NEL ([1]; reproduction developmental, F, generation: P0, P0: Liver: Liver Weight, Absolute + P0: Liver: Liver Weight, Relative + P0: Ovary: Corpora Lutea + P0: Uterus: Implantation + P0: Uterus: …) was 279000 mg/m3 and the NEL ([1]; reproduction developmental, F, generation: P0, P0: Ovary: Corpora Lutea + P0: Uterus: Implantation + P0: Uterus: Pre-Implantation Loss + P0: Uterus: Resorptions, Mean/Litter + P0: Whole …) was 279000 mg/m3. The LEL [1, 6] was 279000 mg/m3 and the NEL [1, 6] was 83700 mg/m3.
`O=S(=O)([O-])C(F)(F)C(F)(F)C(F)(F)C(F)(F)C(F)(F)C(F)(F)C(F)(F)C(F)(F)F.[K+]` [Potassium perfluorooctanesulfonate] showed an NOAEL ([2]; chronic, duration: 26 weeks, F) of 0.75 mg/kg-day, an LOAEL [2, 7] of 0.75 mg/kg-day and an NOAEL [2, 7] of 0.15 mg/kg-day. For the same molecule, the NOAEL ([2]; chronic, duration: 26 weeks, M/F, Neurological: No histological alterations) was 0.75 mg/kg-day, the NOAEL ([2]; chronic, duration: 26 weeks, M, Body Weight: 13.5% reduction in final body weight) was 0.15 mg/kg-day and the LOAEL ([2]; chronic, duration: 26 weeks, M, Body Weight: 13.5% reduction in final body weight + Reproductive: Significant decrease in serum estradiol on days 62 (48%), 91 (42%), and …) was 0.75 mg/kg-day. The NOAEL ([2]; chronic, duration: 315 days, M) was 13.3 mg/kg-day, the LOAEL ([2]; chronic, duration: 315 days, M, Endocrine: Decreased serum T4 / values still within normal range + Hepatic: Decrease in HDL cholesterol / values still within normal range) was 13.3 mg/kg-day and the NOAEL ([2]; short-term, duration: 4 weeks, M/F, Immunotoxicological: No histological alteration + Reproductive: No histological alterations) was 2 mg/kg-day. For the same molecule, the NOAEL ([3]; developmental, Developmental: Decreased fetal body weight / 10% at […] and 24% at 3.75 mg/kg/day / 10/22 does aborted between GD 22 and 28 at 3.75 mg/kg/…) was 1 mg/kg-day, the LOAEL [3, 8] was 1 mg/kg-day and the NOAEL [3, 8] was 0.1 mg/kg-day.
